In ChEMBL document CHEMBL4602605, “Fluoroquinolones structural and medicinal developments (2013-2018): Where are we now?” (Bioorg Med Chem, 2019):
In brackets after ≈: the same amount, converted by molar mass.

Legend:
Format in all cases: functional
Pseudomonas aeruginosa [1] = test: Antimicrobial activity against Pseudomonas aeruginosa ATCC 27853
[2] = system: Acinetobacter calcoaceticus; test: Antimicrobial activity against Acinetobacter calcoaceticus ATCC 19606
Escherichia coli [3] = test: Antimicrobial activity against ESBL non-producing Escherichia coli ATCC 25922
Klebsiella pneumoniae [4] = test: Antimicrobial activity against ESBL-producing Klebsiella pneumoniae ATCC 700603
Enterobacter cloacae = test: Antimicrobial activity against Enterobacter cloacae ATCC 43560
Bacillus subtilis = test: Antibacterial activity against Bacillus subtilis NCDC 71 by single disk method
Pseudomonas aeruginosa [5] = test: Antibacterial activity against Pseudomonas aeruginosa NCDC 105 by single disk method
Staphylococcus aureus [6] = test: Antibacterial activity against Staphylococcus aureus NCDC 110 by single disk method
Escherichia coli [7] = test: Antibacterial activity against Escherichia coli NCDC 134 by single disk method
Metaphire posthuma = test: Anthelmintic activity against Pheretima posthuma assessed as mean paralysing time at 200 mg/ml
Mus musculus = test: Analgesic activity in Swiss albino mouse assessed as acetic acid-induced writhing number at 50 mg/kg pretreated for 30 mins followed by acetic acid challenge and measured after 5 to 15 mins (reference value: 30.8 +/- 0.37)
Paenibacillus polymyxa = test: Antibacterial activity against Paenibacillus polymyxa NCDC 64 by single disk method
Klebsiella pneumoniae [8] = test: Antimicrobial activity against Klebsiella pneumoniae ATCC 29522 incubated for 16 hrs by CLSI-based agar dilution method; conditions: ATCC 29522, 16 h
Staphylococcus aureus [9] = test: Antimicrobial activity against methicillin-resistant Staphylococcus aureus clinical isolate incubated for 16 hrs by CLSI based agar dilution method
Staphylococcus aureus [10] = test: Antimicrobial activity against methicillin-susceptible Staphylococcus aureus clinical isolate incubated for 16 hrs by CLSI based agar dilution method
[11] = system: Staphylococcus epidermidis; test: Antimicrobial activity against methicillin-resistant Staphylococcus epidermidis clinical isolate incubated for 16 hrs by CLSI based agar dilution method
[12] = system: Staphylococcus epidermidis; test: Antimicrobial activity against methicillin-susceptible Staphylococcus epidermidis clinical isolate incubated for 16 hrs by CLSI based agar dilution method
Escherichia coli [13] = test: Antimicrobial activity against Escherichia coli ATCC 700603 incubated for 16 hrs by CLSI-based agar dilution method; conditions: ATCC 700603, 16 h

Row | SMILES | MIC (Pseudomonas aeruginosa [1]) [µM] | MIC [2] [µM] | MIC (Escherichia coli [3]) [µM] | MIC (Klebsiella pneumoniae [4]) [µM] | MIC (Enterobacter cloacae) [µM] | MIC (Bacillus subtilis) [µg/mL] | MIC (Pseudomonas aeruginosa [5]) [µg/mL] | MIC (Staphylococcus aureus [6]) [µg/mL] | MIC (Escherichia coli [7]) [µg/mL] | MIC (Paenibacillus polymyxa) [µg/mL] | Time (Metaphire posthuma) [min] | Activity (Mus musculus) | further results
1 | COc1ccc(-c2nn(CN3CCN(c4cc5c(cc4F)c(=O)c(C(=O)O)cn5[C@@H]4C[C@@H]4F)CC3)c(=S)n2-c2ccccc2)cc1OC | 1.48 (≈ 0.999 µg/mL) | 23.7 (≈ 16 µg/mL) | ≤ 0.04 | 2.97 (≈ 2 µg/mL) | ≤ 0.04 |  |  |  |  |  |  |  | 
2 | CCn1cc(C(=O)O)c(=O)c2cc(F)c(N3CCN(CC(=O)Nc4nc5c(Cl)ccc(Cl)c5s4)CC3)cc21 |  |  |  |  |  | 20 (≈ 34.6 µM) | 30 (≈ 51.9 µM) | 40 (≈ 69.1 µM) | 60 (≈ 104 µM) | 15 (≈ 25.9 µM) | 26.8 | 17.4 | 
3 | COc1c(N2CCN(CC(=O)Nc3nc4ccc(Cl)c(Cl)c4s3)C(C)C2)c(F)cc2c(=O)c(C(=O)O)cn(C3CC3)c12 (stereo not given) |  |  |  |  |  | 25 (≈ 39.4 µM) | 30 (≈ 47.3 µM) | 10 (≈ 15.8 µM) | 70 (≈ 110 µM) | 25 (≈ 39.4 µM) | 2.7 | 0.73 | 
4 | COc1c(N2C[C@H]3CCCN(C(O)Cn4cc([N+](=O)[O-])nc4Cl)[C@H]3C2)c(F)cc2c(=O)c(C(=O)O)cn(C3CC3)c12 (stereo not given in full) |  |  |  |  |  |  |  |  |  |  |  |  | MIC (Klebsiella pneumoniae [8]): > 32 µg/mL; MIC (Staphylococcus aureus [9]): 16 µg/mL (≈ 27.1 µM); MIC (Staphylococcus aureus [10]): 0.5 µg/mL (≈ 0.846 µM); MIC [11]: 0.125 µg/mL (≈ 0.212 µM); MIC [12]: 0.25 µg/mL (≈ 0.423 µM); MIC (Escherichia coli [13]): 2 µg/mL (≈ 3.38 µM)
5 | COc1cccc(-c2nn(CN3CCN(c4cc5c(cc4F)c(=O)c(C(=O)O)cn5[C@@H]4C[C@@H]4F)CC3)c(=S)n2-c2ccccc2)c1 | 6.21 (≈ 4 µg/mL) | 12.4 (≈ 8.01 µg/mL) | ≤ 0.05 | 1.55 (≈ 0.999 µg/mL) | ≤ 0.05 |  |  |  |  |  |  |  | 
6 | Cc1cc(C)cc(-c2nn(CN3CCN(c4cc5c(cc4F)c(=O)c(C(=O)O)cn5[C@@H]4C[C@@H]4F)CC3)c(=S)n2Cc2ccccc2)c1 | 1.45 (≈ 0.952 µg/mL) | 5.81 (≈ 3.82 µg/mL) | ≤ 0.04 | 1.45 (≈ 0.952 µg/mL) | ≤ 0.04 |  |  |  |  |  |  |  | 
7 | CCn1cc(C(=O)O)c(=O)c2cc(F)c(N3CCN(CC(=O)Nc4nc5ccc(F)cc5s4)CC3)cc21 |  |  |  |  |  | 65 (≈ 123 µM) | 40 (≈ 75.8 µM) | 45 (≈ 85.3 µM) | 35 (≈ 66.3 µM) | 55 (≈ 104 µM) | 23.6 | 18.6 | 
8 | CCn1cc(C(=O)O)c(=O)c2cc(F)c(N3CCN(CC(=O)Nc4nc5ccc([N+](=O)[O-])cc5s4)CC3)cc21 |  |  |  |  |  | 15 (≈ 27 µM) | 55 (≈ 99.2 µM) | 105 (≈ 189 µM) | 125 (≈ 225 µM) | 75 (≈ 135 µM) | 27 | 17.8 | 
9 | CCn1cc(C(=O)O)c(=O)c2cc(F)c(N3CCN(CC(=O)Nc4nc5ccc(Cl)cc5s4)CC3)cc21 |  |  |  |  |  | 2 (≈ 3.68 µM) | 10 (≈ 18.4 µM) | 15 (≈ 27.6 µM) | 50 (≈ 91.9 µM) | 25 (≈ 46 µM) | 23.6 | 15.2 | 
10 | O=C(O)c1cn([C@@H]2C[C@@H]2F)c2cc(N3CCN(Cn4nc(-c5ccncc5)n(Cc5ccccc5)c4=S)CC3)c(F)cc2c1=O | 0.79 (≈ 0.497 µg/mL) | 12.7 (≈ 8 µg/mL) | ≤ 0.05 | 1.59 (≈ 1 µg/mL) | ≤ 0.05 |  |  |  |  |  |  |  | 
11 | COc1c(N2CCN(CC(=O)Nc3nc4c(C)cccc4s3)C(C)C2)c(F)cc2c(=O)c(C(=O)O)cn(C3CC3)c12 (stereo not given) |  |  |  |  |  | 120 (≈ 207 µM) | 85 (≈ 147 µM) | 70 (≈ 121 µM) | 75 (≈ 129 µM) | 60 (≈ 104 µM) | 32.4 | 20.8 | 
12 | O=C(CN1CCN(c2cc3c(cc2F)c(=O)c(C(=O)O)cn3C2CC2)CC1)Nc1nc2ccc(F)cc2s1 |  |  |  |  |  | 40 (≈ 74.1 µM) | 60 (≈ 111 µM) | 35 (≈ 64.9 µM) | 80 (≈ 148 µM) | 125 (≈ 232 µM) | 27.8 | 17 | 

Second part, led by results:

Row | MIC (Pseudomonas aeruginosa [1]) [µM] | MIC [2] [µM] | MIC (Escherichia coli [3]) [µM] | MIC (Klebsiella pneumoniae [4]) [µM] | MIC (Enterobacter cloacae) [µM] | MIC (Bacillus subtilis) [µg/mL] | MIC (Pseudomonas aeruginosa [5]) [µg/mL] | MIC (Staphylococcus aureus [6]) [µg/mL] | MIC (Escherichia coli [7]) [µg/mL] | MIC (Paenibacillus polymyxa) [µg/mL] | SMILES | Time (Metaphire posthuma) [min] | Activity (Mus musculus) | further results
13 | 1.59 (≈ 1 µg/mL) | 6.35 (≈ 4 µg/mL) | ≤ 0.05 | 1.59 (≈ 1 µg/mL) | ≤ 0.05 |  |  |  |  |  | O=C(O)c1cn([C@@H]2C[C@@H]2F)c2cc(N3CCN(Cn4nc(-c5cccc(O)c5)n(-c5ccccc5)c4=S)CC3)c(F)cc2c1=O |  |  | 
14 | 3.1 (≈ 2 µg/mL) | 6.21 (≈ 4 µg/mL) | ≤ 0.05 | 0.78 (≈ 0.503 µg/mL) | ≤ 0.05 |  |  |  |  |  | COc1ccccc1-c1nn(CN2CCN(c3cc4c(cc3F)c(=O)c(C(=O)O)cn4[C@@H]3C[C@@H]3F)CC2)c(=S)n1-c1ccccc1 |  |  | 
15 | 3.25 (≈ 2 µg/mL) | 13 (≈ 8 µg/mL) | 0.1 (≈ 0.0616 µg/mL) | 3.25 (≈ 2 µg/mL) | ≤ 0.05 |  |  |  |  |  | O=C(O)c1cn([C@@H]2C[C@@H]2F)c2cc(N3CCN(Cn4nc(-c5ccncc5)n(-c5ccccc5)c4=S)CC3)c(F)cc2c1=O |  |  | 
16 | 1.63 (≈ 1 µg/mL) | 13 (≈ 8 µg/mL) | ≤ 0.05 | 1.63 (≈ 1 µg/mL) | ≤ 0.05 |  |  |  |  |  | O=C(O)c1cn([C@@H]2C[C@@H]2F)c2cc(N3CCN(Cn4nc(-c5cccnc5)n(-c5ccccc5)c4=S)CC3)c(F)cc2c1=O |  |  | 
17 | 1.59 (≈ 1 µg/mL) | 12.7 (≈ 8 µg/mL) | 0.1 (≈ 0.0631 µg/mL) | 1.59 (≈ 1 µg/mL) | ≤ 0.05 |  |  |  |  |  | O=C(O)c1cn([C@@H]2C[C@@H]2F)c2cc(N3CCN(Cn4nc(-c5ccccc5O)n(-c5ccccc5)c4=S)CC3)c(F)cc2c1=O |  |  | 
